Test results taken from PubChem BioAssay (NCI).
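GI50: concentration for 50% inhibition of growth. TGI marks complete inhibition of growth.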

How the values were obtained:
Experiment in all cases: NCI-60 cell line screen, 384-well format
OVCAR-3 ovarian = system: OVCAR-3 ovarian
SF-268 CNS = system: SF-268 CNS
OVCAR-8 ovarian = system: OVCAR-8 ovarian
SNB-75 CNS = system: SNB-75 CNS
MDA-MB-468 breast = system: MDA-MB-468 breast
MCF7 breast = system: MCF7 breast
LOX IMVI melanoma = system: LOX IMVI melanoma
COLO 205 colon = system: COLO 205 colon
A498 renal = system: A498 renal
K-562 leukemia = system: K-562 leukemia
SNB-19 CNS = system: SNB-19 CNS
MDA-MB-231 breast = system: MDA-MB-231 breast
A549 NSCLC = system: A549 NSCLC
HOP-92 NSCLC = system: HOP-92 NSCLC
MALME-3M melanoma = system: MALME-3M melanoma
HL-60(TB) leukemia = system: HL-60(TB) leukemia
NCI-H23 lung = system: NCI-H23 lung
BT-549 breast = system: BT-549 breast
EKVX NSCLC = system: EKVX NSCLC
SF-295 CNS = system: SF-295 CNS
HOP-62 NSCLC = system: HOP-62 NSCLC
HCT-15 colon = system: HCT-15 colon
SK-OV-3 ovarian = system: SK-OV-3 ovarian
SK-MEL-28 melanoma = system: SK-MEL-28 melanoma
T-47D breast = system: T-47D breast
SW-620 colon = system: SW-620 colon
SR leukemia = system: SR leukemia
PC-3 prostate = system: PC-3 prostate
UACC-257 melanoma = system: UACC-257 melanoma
SK-MEL-5 melanoma = system: SK-MEL-5 melanoma
NCI-H522 lung = system: NCI-H522 lung
SN12C renal = system: SN12C renal
OVCAR-4 ovarian = system: OVCAR-4 ovarian
HCC-2998 colon = system: HCC-2998 colon
NCI-H460 NSCLC = system: NCI-H460 NSCLC
RPMI-8226 leukemia = system: RPMI-8226 leukemia
TK-10 renal = system: TK-10 renal
UACC-62 melanoma = system: UACC-62 melanoma
IGROV1 ovarian = system: IGROV1 ovarian
UO-31 renal = system: UO-31 renal
786-0 renal = system: 786-0 renal
MDA-MB-435 melanoma = system: MDA-MB-435 melanoma
OVCAR-5 ovarian = system: OVCAR-5 ovarian
ACHN renal = system: ACHN renal
NCI-H322M lung = system: NCI-H322M lung
MOLT-4 leukemia = system: MOLT-4 leukemia
NCI/ADR-RES ovarian = system: NCI/ADR-RES ovarian
HT29 colon = system: HT29 colon
CCRF-CEM leukemia = system: CCRF-CEM leukemia
SF-539 CNS = system: SF-539 CNS
M14 melanoma = system: M14 melanoma
DU-145 prostate = system: DU-145 prostate
RXF 393 renal = system: RXF 393 renal
KM12 colon = system: KM12 colon
HS 578T breast = system: HS 578T breast
CAKI-1 renal = system: CAKI-1 renal
NCI-H226 lung = system: NCI-H226 lung

`Cc1cc2c(C(N)=O)cccc2n1-c1nc2c(c(NCc3ccccc3)n1)CCCN2` was tested, and the GI50 (OVCAR-3 ovarian) was 138 nM, the TGI (OVCAR-3 ovarian) was 270 nM and the GI50 (SF-268 CNS) was 174 nM. The TGI (SF-268 CNS) was 313 nM, the GI50 (OVCAR-8 ovarian) was 159 nM and the TGI (OVCAR-8 ovarian) was 296 nM. It also gave a GI50 (SNB-75 CNS) of 194 nM, a TGI (SNB-75 CNS) of 338 nM and a GI50 (MDA-MB-468 breast) of 223 nM. It also gave a TGI (MDA-MB-468 breast) of 369 nM, a GI50 (MCF7 breast) of 142 nM and a TGI (MCF7 breast) of 343 nM. The GI50 (LOX IMVI melanoma) was 101 nM, the TGI (LOX IMVI melanoma) was 220 nM and the GI50 (COLO 205 colon) was 193 nM. The TGI (COLO 205 colon) was 339 nM, the GI50 (A498 renal) was 162 nM and the TGI (A498 renal) was 303 nM. It also gave a GI50 (K-562 leukemia) of 134 nM, a TGI (K-562 leukemia) of 269 nM and a GI50 (SNB-19 CNS) of 191 nM. The TGI (SNB-19 CNS) was 336 nM, the GI50 (MDA-MB-231 breast) was 181 nM and the TGI (MDA-MB-231 breast) was 323 nM. The GI50 (A549 NSCLC) was 182 nM, the TGI (A549 NSCLC) was 339 nM and the GI50 (HOP-92 NSCLC) was 154 nM. It also gave a TGI (HOP-92 NSCLC) of 290 nM, a GI50 (MALME-3M melanoma) of 151 nM and a TGI (MALME-3M melanoma) of 284 nM. The GI50 (HL-60(TB) leukemia) was 162 nM, the TGI (HL-60(TB) leukemia) was 300 nM and the GI50 (NCI-H23 lung) was 134 nM. For the same molecule, the TGI (NCI-H23 lung) was 263 nM, the GI50 (BT-549 breast) was 193 nM and the TGI (BT-549 breast) was 342 nM. For the same molecule, the GI50 (EKVX NSCLC) was 162 nM, the TGI (EKVX NSCLC) was 303 nM and the GI50 (SF-295 CNS) was 154 nM. The TGI (SF-295 CNS) was 290 nM, the GI50 (HOP-62 NSCLC) was 167 nM and the TGI (HOP-62 NSCLC) was 305 nM. It also gave a GI50 (HCT-15 colon) of 155 nM, a TGI (HCT-15 colon) of 295 nM and a GI50 (SK-OV-3 ovarian) of 246 nM. It also gave a TGI (SK-OV-3 ovarian) of 497 nM, a GI50 (SK-MEL-28 melanoma) of 177 nM and a TGI (SK-MEL-28 melanoma) of 318 nM. It also gave a GI50 (T-47D breast) of 162 nM, a TGI (T-47D breast) of 299 nM and a GI50 (SW-620 colon) of 176 nM. The TGI (SW-620 colon) was 316 nM, the GI50 (SR leukemia) was 115 nM and the TGI (SR leukemia) was 238 nM. It also gave a GI50 (PC-3 prostate) of 188 nM, a TGI (PC-3 prostate) of 331 nM and a GI50 (UACC-257 melanoma) of 173 nM. The TGI (UACC-257 melanoma) was 313 nM, the GI50 (SK-MEL-5 melanoma) was 34.9 nM and the TGI (SK-MEL-5 melanoma) was 106 nM. For the same molecule, the GI50 (NCI-H522 lung) was 125 nM, the TGI (NCI-H522 lung) was 252 nM and the GI50 (SN12C renal) was 175 nM. For the same molecule, the TGI (SN12C renal) was 315 nM, the GI50 (OVCAR-4 ovarian) was 184 nM and the TGI (OVCAR-4 ovarian) was 325 nM. For the same molecule, the GI50 (HCC-2998 colon) was 166 nM, the TGI (HCC-2998 colon) was 305 nM and the GI50 (NCI-H460 NSCLC) was 177 nM. It also gave a TGI (NCI-H460 NSCLC) of 324 nM, a GI50 (RPMI-8226 leukemia) of 20.8 nM and a TGI (RPMI-8226 leukemia) of 41.5 nM. It also gave a GI50 (TK-10 renal) of 179 nM, a TGI (TK-10 renal) of 362 nM and a GI50 (UACC-62 melanoma) of 129 nM. The TGI (UACC-62 melanoma) was 258 nM, the GI50 (IGROV1 ovarian) was 168 nM and the TGI (IGROV1 ovarian) was 315 nM. For the same molecule, the GI50 (UO-31 renal) was 171 nM, the TGI (UO-31 renal) was 318 nM and the GI50 ([…]-0 renal) was 173 nM. For the same molecule, the TGI (786-0 renal) was 314 nM, the GI50 (MDA-MB-435 melanoma) was 178 nM and the TGI (MDA-MB-435 melanoma) was 320 nM. For the same molecule, the GI50 (OVCAR-5 ovarian) was 183 nM, the TGI (OVCAR-5 ovarian) was 326 nM and the GI50 (ACHN renal) was 157 nM. The TGI (ACHN renal) was 397 nM, the GI50 (NCI-H322M lung) was 200 nM and the TGI (NCI-H322M lung) was 374 nM. The GI50 (MOLT-4 leukemia) was 150 nM, the TGI (MOLT-4 leukemia) was 284 nM and the GI50 (NCI/ADR-RES ovarian) was 182 nM. The TGI (NCI/ADR-RES ovarian) was 323 nM, the GI50 (HT29 colon) was 168 nM and the TGI (HT29 colon) was 310 nM. It also gave a GI50 (CCRF-CEM leukemia) of 162 nM, a TGI (CCRF-CEM leukemia) of 299 nM and a GI50 (SF-539 CNS) of 167 nM. The TGI (SF-539 CNS) was 305 nM, the GI50 (M14 melanoma) was 170 nM and the TGI (M14 melanoma) was 309 nM. The GI50 (DU-145 prostate) was 195 nM, the TGI (DU-145 prostate) was 351 nM and the GI50 (RXF 393 renal) was 78.5 nM. The TGI (RXF 393 renal) was 206 nM, the GI50 (KM12 colon) was 168 nM and the TGI (KM12 colon) was 310 nM. The GI50 (HS 578T breast) was 78.8 nM, the TGI (HS 578T breast) was 204 nM and the GI50 (CAKI-1 renal) was 170 nM. For the same molecule, the TGI (CAKI-1 renal) was 317 nM, the GI50 (NCI-H226 lung) was 102 nM and the TGI (NCI-H226 lung) was 220 nM.
